Reference: US20150201661A1, “BAMBOO EXTRACTS, COMPOSITIONS AND USES THEREOF” (priority 2014, published 2015)
Marks after values point to notes of the source that are not given here.

Assays:
Type in all cases: in vivo, Pseudosciaena crocea
[1] = test system: back muscle tissue; experiment: Transmission electron microscopy of back muscle of large yellow croakers; details: FIG. 4
Source text: (§1) Yellow croaker fish (Pseudosciaena crocea) are an important marine economic fish in China. One thousand and eight hundred of large yellow croakers with the average weight of 150.06±11.35 g, were randomly selected into three groups (each group represented by three replicates of 200 large yellow croakers each). The GBE group and astaxanthin group were feed with complete formula puffed pellet feed rich in 3.0 g/kg of GBE and 1.0 g/kg of astaxanthin, respectively. Astaxanthin is an accepted dietary additive, but is quite expensive. The reference group was feed with chilled miscellaneous fish and shrimp. The breeding time was five months. Feeding was stopped 24 h after the test. Eight test large yellow croakers were randomly selected from each replicate group (that is, 24 test large yellow croakers each group). The selected fish were weighed, the livers were segmented, and the abdominal and back muscles examined after they were killed. Adequate amount of fresh back and abdominal muscle were used for sensory evaluation, the rest were sub-packaged and stored on −20° C. refrigerator for further use. The fat content of liver and fish and the superoxide dismutase (SOD) activity, catalase (CAT) activity, malondialdehyde (MDA) content, leptin content, adiponectin content of liver were detected.

[2] = test system: superoxide dismutase (SOD); experiment: SOD activity in liver of large yellow croaker; details: 5 months, feed with GBE 3.0 g/kg or astaxanthin 1.0 g/kg
Source text: as §1

[3] = test system: malondialdehyde (MDA); experiment: MDA content (lipid peroxidation) in liver of large yellow croaker; details: 5 months, feed with GBE 3.0 g/kg or astaxanthin 1.0 g/kg
Source text: as §1

[4] = test system: leptin; experiment: Leptin level in the liver of large yellow croaker; details: 5 months, feed with GBE 3.0 g/kg or astaxanthin 1.0 g/kg
Source text: as §1

[5] = Body weight and fat content of large yellow croaker; details: 5 months, feed with GBE 3.0 g/kg or astaxanthin 1.0 g/kg
Source text: as §1

[6] = test system: adiponectin; experiment: Adiponectin level in the liver of large yellow croaker; details: 5 months, feed with GBE 3.0 g/kg or astaxanthin 1.0 g/kg
Source text: as §1

[7] = test system: catalase (CAT); experiment: CAT activity in liver of large yellow croaker; details: 5 months, feed with GBE 3.0 g/kg or astaxanthin 1.0 g/kg
Source text: as §1

CC1=C(/C=C/C(C)=C/C=C/C(C)=C/C=C/C=C(C)/C=C/C=C(C)/C=C/C2=C(C)C(=O)[C@@H](O)CC2(C)C)C(C)(C)C[C@H](O)C1=O [ASTA, astaxanthin]
clearance of muscle bundle, order of groups ([1]; TEM 10000 times): reference group<GBE group<astaxanthin group
quantity of mitochondria, order of groups ([1]; TEM 12000 times): reference group<GBE group<astaxanthin group
SOD activity in the liver [2]: 157.35 ± 10.24^a U/mg prot
MDA level in the liver [3]: 118 ± 9.33 nmol/mg prot
LEPTIN level in the liver [4]: 1.08 ± 0.12^b ng/mL
overall body weight vs reference group ([5]; FIG. 3): no significant differences
fat content of liver vs reference group ([5]; p<0.05): significantly lower
fat content of muscle vs reference group ([5]; p<0.05): significantly lower
ADIPONECTIN level in the liver [6]: 2.57 ± 0.33^c ug/mL
CAT activity in the liver [7]: 22.56 ± 3.11^a U/mg prot
CAT/SOD ratio in the liver [7]: 0.13 ± 0.01^a
